The values that follow come from patent US20250262273A1, “MODIFIED CAVEOLIN-1 PEPTIDES FOR THE TREATMENT OF CHRONIC KIDNEY DISEASE” (Rein Therapeutics, Inc., priority 2021, published 2025).

Several values for one entry are separate records, joined by “and”; a condition that tells them apart may be missing. Equal values may be shown once. Non-standard residues stand in square brackets, D forms with d.

Experiment [1] deals with Col4a3−/− mice on a 129S1/SvlmJ background. In words: Col4a3−/− mouse model of Alport syndrome, Study 2: four weeks of treatment. Format: in vivo. The note with it: for Moderately Sclerotic Glom / Severely Sclerotic Glom / Moderately Sclerotic Glom (%) / Sclerotic Glom (%) / Severely Sclerotic Glom (%): 8 week-old, 4 weeks daily i.p. 0.0022 mg/g; for Moderately Sclerotic Glom / Severely Sclerotic Glom: count per individual mouse; for Moderately Sclerotic Glom (%) / Sclerotic Glom (%) / Severely Sclerotic Glom (%): per individual mouse. The protocol:
(§1) The objective of this study was to evaluate the efficacy of the modified Cav-1 peptide APi2355 in ameliorating kidney fibrosis and disease using the Col4a3−/− mouse model of Alport syndrome. Alport syndrome mice (knockouts) have reduced Cav-1 expression in glomerulae tubules and develop glomerular fibrosis.
Four week-old Col4a3−/− mice on a 129S1/SvlmJ background were intraperitoneally injected daily with APi2355 (SEQ ID NO: 8, 0.0022 mg/g body weight) or with normal saline for 4 weeks. Urine was collected prior to treatment at 4 weeks-old and at 6, 7, and 8-weeks-old following treatment to monitor for glomerular permselectivity by measuring albumin to creatinine (A/C) ratios. Blood was collected prior to treatment at 4 weeks-old and at 6 and 8 weeks-old following treatment to monitor for glomerular filtration rate using the BUN assay and kidney tissue was collected following sacrifice to assess for renal injury and fibrosis. Mouse identification numbers were used to differentiate treatment groups.

For experiment [2] the test system is unchanged. In words: Col4a3−/− mouse model of Alport syndrome, Study 1: two weeks of treatment. The following applies: for immunofluorescence staining of collagen I and nidogen on kidney tissue / immunofluorescence staining of collagen I and αSMA on kidney tissue: 0.0022 mg/g i.p. daily for 2 weeks, same finding in saline-treated mice. Format: in vivo.
From the text: as §1
Col4a3−/− on the 129S1/SvlmJ develop end-stage renal disease at a faster rate compared to Col4a3−/− mice on the C57BL/6 background. Five week-old (Cohort 2) and 6 week-old (Cohort 1) Col4a3−/− mice on a 129S1/SvlmJ background were intraperitoneally injected daily with APi2355 (SEQ ID NO: 8, 0.0022 mg/g body weight) or with normal saline for 2 weeks. Urine was collected prior to treatment and on the day of sacrifice to monitor for glomerular permselectivity by measuring albumin to creatinine (A/C) ratios. Blood was collected on the day of sacrifice to monitor for glomerular filtration rate by blood urea nitrogen (BUN) assay and kidney tissue was collected following sacrifice to assess for renal injury and fibrosis. Mouse identification numbers were used to differentiate treatment groups.

For experiment [3], the system named is bleomycin-treated aged male mice. In words: Bleomycin model of lung fibrosis in aged mice, Study 1 (Total Collagen Assay). It is filed as in vivo, mouse. The following applies: bleomycin 4 U/kg intratracheal, mice 74 to 76 weeks-old, dry powder inhalation, compared to control peptide. From the text: (§2) The objective of this study was to evaluate the modified Cav-1 peptide CSP-7 in a bleomycin model of idiopathic pulmonary fibrosis and acute respiratory distress syndrome (ARDS). Aged male mice were selected to closely match the population of humans most vulnerable to ARDS.
Aged male mice, which have a higher burden of senescent cells and therefore less regenerative potential, were used to test the efficacy of CSP-7 (SEQ ID NO: 3). Mice were between 74 to 76 weeks-old at the time of intratracheal bleomycin installation (4 U/kg body weight; n=5-8 mice/group). The Total Collagen Assay (QuickZyme Biosciences) was used to assess total collagen in lung tissue, which first hydrolyzes proteins in the lung homogenate then oxidizes hydroxyproline and stains.

The subject of the next experiment is BLM-treated aged mice. Description: Bleomycin model of lung fibrosis in aged mice, Study 2. It is filed as in vivo. The following applies: BLM 8 U/kg intratracheal, 73-74 week-old mice, 0.5 mg/mouse dry powder inhalation from day 14, sacrifice day 21, compared to control peptide. The method, then: as §2
Bleomycin (BLM, 8 U/kg) was administered intratracheally to 73-74 week-old mice (n=52) expecting approximately 50% loss of mice due to BLM-induced lung injury. On day 14 post-instillation, CSP-7 and a control peptide (CP) was administered to mice via dry powder inhalation (DPI) or intraperitoneal injection (IP) as shown in Table B below. On day 21 post-instillation, mice were sacrificed and blood and tissues were collected for analysis. Statistics were performed using Dunnett's multiple comparison test.

Setting [4] is: treatment starting at 4 weeks of age, 4 weeks, vs saline.
[5] abbreviates: Cohort 1 (treatment start 6 weeks-old).
[6] abbreviates: Cohort 2 (treatment start 5 weeks-old).

Consider “Ac-aaEGKASFTTFTVTKGSaa-NH2 (Ac-[dA][dA]EGKASFTTFTVTKGS[dA][dA]-NH2; SMILES CC(=O)N[C@H](C)C(=O)N[C@H](C)C(=O)N[C@@H](CCC(=O)O)C(=O)NCC(=O)N[C@@H](CCCCN)C(=O)N[C@@H](C)C(=O)N[C@@H](CO)C(=O)N[C@@H](Cc1ccccc1)C(=O)N[C@H](C(=O)N[C@H](C(=O)N[C@@H](Cc1ccccc1)C(=O)N[C@H](C(=O)N[C@H](C(=O)N[C@H](C(=O)N[C@@H](CCCCN)C(=O)NCC(=O)N[C@@H](CO)C(=O)N[C@H](C)C(=O)N[C@H](C)C(N)=O)[C@@H](C)O)C(C)C)[C@@H](C)O)[C@@H](C)O)[C@@H](C)O) [APi2355, modified Cav-1 peptide]”, for which, in experiment [1] (female Col4a3−/− mice), the “Moderately Sclerotic Glom” value is 0 and 1 (2×); the “Severely Sclerotic Glom” value was 4; the “Moderately Sclerotic Glom (%)” value was 0.0% and 2.0% and 2.1%; the “Sclerotic Glom (%)” value was 7.4% and 9.8% and 10.6%. Also, the “Severely Sclerotic Glom (%)” value in experiment [1] (female Col4a3−/− mice) was 7.4% and 7.8% and 8.5%. For the same substance, the “percentage of sclerotic glomeruli as assayed by collagen I deposition” value in experiment [1] (females, treatment starting at 4 weeks of age, 4 weeks, vs saline) is “reduced the percentage of sclerotic glomeruli in females”. For the same substance, in experiment [1] (male Col4a3−/− mouse), the “Moderately Sclerotic Glom” value was 6, the “Severely Sclerotic Glom” value came out at 21, the “Moderately Sclerotic Glom (%)” value stood at 15.0% and the “Sclerotic Glom (%)” value worked out at 67.5%. For the same substance, the “Severely Sclerotic Glom (%)” value in experiment [1] (male Col4a3−/− mouse) worked out at 52.5%. In addition, the glomerular fibrosis result in experiment [1] (mouse model of Alport syndrome, overall conclusion) is listed as “reduced glomerular fibrosis”. Besides, in experiment [1] (setting [4]), the “progression of BUN” value is on record as “did not slow the progression” and the progression of albuminuria result is given as “did not slow the progression”. For the same substance, in experiment [2] (setting [5]), the “immunofluorescence staining of collagen I and nidogen on kidney tissue” value is “additional staining in sclerotic glomeruli”; the “immunofluorescence staining of collagen I and αSMA on kidney tissue” value is on record as “additional staining in sclerotic glomeruli”. In experiment [2] (Cohort 1 and Cohort 2, 2 weeks of treatment, same in saline-treated mice), the “kidney sclerosis, overall” value is “severe sclerosis in the interstitium and many sclerotic glomeruli”. Moreover, in experiment [2] (setting [6]), the “immunofluorescence staining of collagen I and nidogen on kidney tissue” value was “additional staining in sclerotic glomeruli”; the “immunofluorescence staining of collagen I and αSMA on kidney tissue” value is given as “additional staining in sclerotic glomeruli”.

Consider “FTTFTVT (Modified Caveolin-1 peptide) [CSP-7, seven amino acid fragment of the human CSD of caveolin-1]”, for which the “total collagen in the lung” value (in experiment [3]; in the experiment with BLM-treated aged mice) was “reduction in total collagen” in each case.
